From patent publication US12678514B2, “Algae-based microrobot for drug delivery” (priority 2023, dated 2026)
Values after ≈ are worked out from the molar mass of the structure shown.

How the values were obtained:
P. aeruginosa = assay: In vitro antibacterial activity (MIC, minimal bactericidal concentration); assay type: cell-based, Pseudomonas aeruginosa; details: CFU enumeration
[1] = system: B16-F10-Luc2 melanoma lung metastasis; assay: In vivo efficacy in a lung metastasis model; parameters: species or system C57BL/6 mice
Description: This model was established by intravenously injecting 1×10^5 B16-F10-Luc2 cells through the tail vein of C57BL/6 mice. The treatment regimen consisted of four 75-μg DOX doses given every other day, with the first dose administered one day after the tumor challenge. […] We also quantified the overall lung metastasis burden based on the bioluminescence intensity in the lungs (FIG. 16d). […] Additionally, we monitored for changes in body weight during the entire treatment period (FIG. 16g).
In vivo efficacy in a lung metastasis model. […] The mice received treatment with free DOX, NP(DOX) and algae-NP(DOX)-robot through intratracheal instillation on days 1, 3, 5 and 7 after tumor cell inoculation. Mice without treatment were used as controls. To monitor tumor growth, on days 12, 16, 20, 24 and 28 after tumor cell inoculation, the mice were intraperitoneally administered 200 μl of 5 mg ml^−1 D-luciferin (Syd Labs) in DPBS (Gibco). Bioluminescence signals were detected using a PerkinElmer Xenogen IVIS 200 system. The body weight and survival of each mouse were also monitored throughout the study.

[2] = In vivo safety evaluation of algae-NP(DOX)-robot; parameters: species or system C57BL/6 mice
Protocol: In vivo toxicity assessment of algae-NP(DOX)-robot. Finally, the toxicity profile of the algae-NP(DOX)-robot was assessed. Healthy mice were subjected to intratracheal administration using one of three different treatments: algae-NP(DOX)-robot, free DOX, and NP(DOX). Each mouse received a total of four 75-μg DOX doses given every other day. A blood count and a comprehensive metabolic panel were performed one day after the final injection to assess the effects of these treatments.
In vivo safety evaluation. Healthy female C57BL/6 mice were intratracheally administered with free DOX, NP(DOX) and algae-NP(DOX)-robot every other day for a total of four injections. Mice without treatment were used as controls. At 24 h following the last treatment, blood samples were collected via submandibular puncture into Microvette 100 EDTA K3E tubes (Sarstedt) for blood cell quantification. To collect serum for comprehensive blood chemistry analysis, blood samples were obtained without any anticoagulant, placed at room temperature for 30 min, and centrifuged at 3000 g for 10 min. Both the blood cell quantification and blood chemistry analyses were performed by the Animal Care Program Diagnostic Services Laboratory at UCSD. For histological analysis, the heart, liver, spleen, lungs and kidneys were excised and fixed in phosphate-buffered 10% formalin (Fisher Chemical), followed by sectioning and hematoxylin and eosin staining. These histological procedures were conducted by the Moores Cancer Center Tissue Technology Shared Resource.

Structure (SMILES) | minimal bactericidal concentration (P. aeruginosa) [µg/mL] | median survival time ([1]; four 75-μg DOX doses intratracheal) [days] | body weight during treatment ([1]; mouse, in vivo) | liver and kidney biomarkers (ALB, ALP, ALT, BUN, TBIL, CRE) ([2]; four 75-μg DOX doses, one day after final dose) | histology of heart, liver, spleen, lungs and kidneys ([2]; mouse, in vivo) | other biomarkers (CA, GLU, PHOS, K+, Na+, TP) ([2]; mouse, in vivo) | white blood cells, red blood cells and platelets ([2]; mouse, in vivo)
O=C(O)c1cn(C2CC2)c2cc(N3CCNCC3)c(F)cc2c1=O [free Cip, ciprofloxacin] | 0.125 (≈ 0.377 µM) | – | – | – | – | – | –
COc1cccc2c1C(=O)c1c(O)c3c(c(O)c1C2=O)C[C@@](O)(C(=O)CO)C[C@@H]3O[C@H]1C[C@H](N)[C@H](O)[C@H](C)O1 [free DOX, doxorubicin] | – | 27 | pronounced decline in body weight | no abnormalities | no observable damage | within their normal ranges | elevated platelet levels
